Eleven compounds from patent US8710233B2 (Gruenenthal GmbH, priority 2005, dated 2014) can be followed below.

Structures are written as SMILES. Where two headings read alike, the source gives them in different places.

A word on the IC50: it is the concentration at which inhibition is half-maximal. A higher IC50 goes with lower potency. The Ki is a dissociation constant, usually derived from enzyme kinetics or from competition with a known ligand.

Holding throughout (type): cell-based
One experiment has as its target VR1/TRPV1 receptor (Homo sapiens, UniProt Q8NER1). Put plainly: IC50 (human) after pH stimulus.
The target of another experiment is T1, vanilloid receptor (VR1) (Homo sapiens, UniProt Q8NER1).
T1 construct: expressed in transfected cells; host or cells: CHO K1 cells (ECACC), stably transfected
Put plainly: FLIPR Ca2+ influx assay on CHO K1 cells transfected with the VR1 gene (pharmacological method II). As to conditions: Table 2; displacement of capsaicin (100 nM), Cheng-Prusoff; read-out: Ki (human).

For experiment [1], the target named is T2, vanilloid receptor 1 (VR1/TRPV1) of the rat species (Rattus norvegicus, UniProt O35433).
T2 construct: The spinal column is removed from decapitated rats; from tissue; host or cells: primary cells dissociated from rat dorsal root ganglia
Put plainly: FLIPR Ca2+ influx assay on rat dorsal root ganglia cells (pharmacological method I). An excerpt:
I. Functional Investigation of the Vanilloid Receptor 1 (VR1/TRPV1 Receptor)
The agonistic or antagonistic action of the substances to be investigated on the vanilloid receptor 1 (VR1/TRPV1) of the rat species may be determined by the following assay. According to this assay, the influx of Ca^2+ through the receptor channel is quantified with the assistance of a Ca^2+-sensitive dye (type Fluo-4, Molecular Probes Europe BV, Leiden, Netherlands) in a Fluorescent Imaging Plate Reader (FLIPR, Molecular Devices, Sunnyvale, USA).
The spinal column is removed from decapitated rats and is placed directly in cold, i.e. located in an ice bath, HBSS buffer (Hank's buffered saline solution, Gibco Invitrogen GmbH, Karlsruhe, Germany) combined with 1 vol. % (percent by volume) of an AA solution (antibiotic/antimycotic solution, PAA, Pasching, Austria). The spinal column is cut open longitudinally and removed together with fasciae from the spinal canal. The dorsal root ganglia (DRGs) are then removed and in turn stored in cold HBSS buffer combined with 1 vol. % of an AA solution. The DRGs, from which all traces of blood and spinal nerves have been removed, are in each case transferred into 500 μL of cold collagenase type 2 (PAA, Pasching, Austria) and incubated for 35 minutes at 37° C. […] Once incubation is complete, the enzyme solution is carefully removed by pipette and the DRGs, which are left behind, are in each case combined with 500 μL of complete medium.
The DRGs are in each case repeatedly suspended, drawn by means of a syringe through […], no. 12 and no. 16 cannulas and transferred into 50 mL Falcon microtubes and each tube is made up to 15 mL with complete medium. The contents of each Falcon microtube are in each case filtered through a 70 μm Falcon filter insert and centrifuged for 10 minutes at 1200 revolutions and room temperature. The resultant pellet is in each case resuspended in 250 μL of complete medium and the cell count determined.
The number of cells in the suspension is adjusted to 3×10^5 per mL and a 150 μL portion of this suspension is in each case placed in a well of the cell culture plate which has been coated as described above.
The cells are then loaded with 2 μM Fluo-4 and 0.01 vol. % Pluronic F127 (Molecular Probes Europe BV, Leiden, Netherlands) in HBSS buffer (Hank's buffered saline solution, Gibco Invitrogen GmbH, Karlsruhe, Germany) for 30 min at 37° C., washed 3× with HBSS buffer and, after a further 15 minutes' incubation at room temperature, used for Ca^2+ measurement in the FLIPR assay. […] Quantification proceeds by measuring the highest fluorescence intensity (FC, fluorescence counts) over time.
The FLIPR protocol comprises 2 additions of substance. The compounds to be tested (10 μM) are firstly pipetted onto the cells and Ca^2+ influx is compared with the control (capsaicin 10 μM). This provides the percentage activation relative to the Ca^2+ signal after addition of 10 μM of capsaicin (CP). After 5 minutes' incubation, 100 nM of capsaicin are added and the influx of Ca^2+ is again determined.
Desensitising agonists and antagonists result in suppression of Ca^2+ influx. The percentage inhibition in comparison with the maximum achievable inhibition with 10 μM capsaicin is calculated.
Triplicate determinations (n═3) are performed and these are repeated in at least 3 independent experiments […].

[2] abbreviates: Table 2, displacement of capsaicin (100 nM), Cheng-Prusoff, read-out: Ki (rat).
Setting [3] is: table 4, capsaicin, read-out: Ki (rat) Cap.

T1 sequence (Q8NER1 whole entry): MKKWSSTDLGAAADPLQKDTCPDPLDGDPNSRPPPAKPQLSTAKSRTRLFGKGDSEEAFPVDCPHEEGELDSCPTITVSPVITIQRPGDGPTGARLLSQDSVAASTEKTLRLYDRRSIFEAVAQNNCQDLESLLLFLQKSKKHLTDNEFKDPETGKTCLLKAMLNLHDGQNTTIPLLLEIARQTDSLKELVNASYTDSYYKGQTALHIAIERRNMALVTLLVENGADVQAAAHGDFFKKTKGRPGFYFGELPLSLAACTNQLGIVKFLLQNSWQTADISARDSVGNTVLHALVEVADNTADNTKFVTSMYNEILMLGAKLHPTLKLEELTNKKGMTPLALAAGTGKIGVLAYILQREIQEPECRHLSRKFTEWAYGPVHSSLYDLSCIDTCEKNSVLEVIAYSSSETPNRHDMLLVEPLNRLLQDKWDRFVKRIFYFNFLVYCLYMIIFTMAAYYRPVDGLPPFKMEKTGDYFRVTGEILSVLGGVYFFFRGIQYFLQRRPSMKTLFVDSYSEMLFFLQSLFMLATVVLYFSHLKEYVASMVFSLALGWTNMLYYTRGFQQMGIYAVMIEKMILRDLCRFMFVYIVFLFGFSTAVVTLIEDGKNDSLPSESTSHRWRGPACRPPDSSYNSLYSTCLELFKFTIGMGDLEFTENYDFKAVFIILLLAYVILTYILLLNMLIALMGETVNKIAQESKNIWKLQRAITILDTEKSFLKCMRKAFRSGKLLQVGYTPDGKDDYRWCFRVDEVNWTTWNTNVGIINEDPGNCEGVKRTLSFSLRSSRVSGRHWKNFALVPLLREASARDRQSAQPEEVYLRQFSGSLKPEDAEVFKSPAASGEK
VR1/TRPV1 receptor, sequence (Q8NER1 whole entry): as above
T2 sequence (O35433 whole entry): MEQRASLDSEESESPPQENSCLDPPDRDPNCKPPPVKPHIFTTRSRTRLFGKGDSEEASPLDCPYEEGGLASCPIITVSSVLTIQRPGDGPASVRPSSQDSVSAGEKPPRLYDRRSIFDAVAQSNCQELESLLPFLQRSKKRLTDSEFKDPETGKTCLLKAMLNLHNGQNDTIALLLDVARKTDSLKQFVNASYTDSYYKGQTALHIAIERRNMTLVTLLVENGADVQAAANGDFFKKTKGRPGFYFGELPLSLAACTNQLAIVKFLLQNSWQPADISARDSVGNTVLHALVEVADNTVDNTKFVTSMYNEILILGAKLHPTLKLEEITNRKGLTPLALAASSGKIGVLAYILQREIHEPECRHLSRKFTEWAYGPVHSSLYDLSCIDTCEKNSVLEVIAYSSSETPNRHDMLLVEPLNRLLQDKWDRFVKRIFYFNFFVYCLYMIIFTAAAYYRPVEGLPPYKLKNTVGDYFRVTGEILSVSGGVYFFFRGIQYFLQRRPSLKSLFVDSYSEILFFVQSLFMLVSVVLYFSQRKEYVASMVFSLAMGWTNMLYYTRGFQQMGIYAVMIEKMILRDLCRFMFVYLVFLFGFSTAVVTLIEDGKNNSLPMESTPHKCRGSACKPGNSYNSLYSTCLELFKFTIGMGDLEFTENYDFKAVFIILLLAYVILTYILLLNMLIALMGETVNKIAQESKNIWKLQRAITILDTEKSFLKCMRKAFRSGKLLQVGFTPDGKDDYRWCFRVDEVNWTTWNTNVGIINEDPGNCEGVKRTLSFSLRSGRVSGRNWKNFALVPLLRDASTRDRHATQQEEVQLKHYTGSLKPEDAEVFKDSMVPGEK

As for `CC(C(=O)NCc1ccc(C(F)(F)F)nc1Br)c1ccc(NS(C)(=O)=O)c(F)c1` (centres unmarked) [Example 6, N-((2-bromo-6-(trifluoromethyl)pyridin-3-yl)methyl)-2-(3-fluoro-4-(methylsulfonamido)phenyl)propanamide], 2610 nM corresponded to half-maximal inhibition against VR1/TRPV1 receptor (Table 2) (IC50). In addition, the inhibitory constant (Ki) at vanilloid receptor (VR1) was 169 nM; in experiment [1] (setting [2]), 95 nM.
Take `C[C@@H](C(=O)NCc1ccc(C(F)(F)F)nc1N1CCCCC1)c1ccc(NS(C)(=O)=O)c(F)c1` [Example 11, (R)-2-(3-fluoro-4-(methylsulfonamido)phenyl)-N-((2-(piperidin-1-yl)-6-(trifluoromethyl)pyridin-3-yl)methyl)propanamide]: the IC50 against VR1/TRPV1 receptor (Table 2) amounted to 46.7 nM. The figures for the Ki (on vanilloid receptor (VR1); in experiment [1] (setting [2])) were 0.3 nM and 1.1 nM, respectively.
In the same order, the values of `CC(C(=O)NCc1ccc(C(F)(F)F)nc1N1CCOCC1)c1ccc(NS(C)(=O)=O)c(F)c1` (centres unmarked) [Example 12, 2-(3-fluoro-4-(methylsulfonamido)phenyl)-N-((2-morpholino-6-(trifluoromethyl)pyridin-3-yl)methyl)propanamide] are 169 nM, 1.3 nM and 4.3 nM.
With `CCCCOc1nc(C(F)(F)F)ccc1CNC(=O)C(C)c1ccc(NS(C)(=O)=O)c(F)c1` (centres unmarked) [Example 19, N-((2-butoxy-6-(trifluoromethyl)pyridin-3-yl)methyl)-2-(3-fluoro-4-(methylsulfonamido)phenyl)propanamide], in experiment [1] (setting [2]), the Ki was determined as 1 nM.
As to `CC(C(=O)NCc1ccc(C(F)(F)F)nc1N1CCCCC1)c1ccc(NS(C)(=O)=O)c(Cl)c1` (centres unmarked) [Example 64, 2-(3-chloro-4-(methylsulfonamido)phenyl)-N-((2-(piperidin-1-yl)-6-(trifluoromethyl)pyridin-3-yl)methyl)propanamide], the figures for the Ki (at vanilloid receptor (VR1); in experiment [1] (setting [2])) were 2.3 nM and 6.3 nM, respectively.
For the compound `CC(C(=O)NCc1ccc(C(F)(F)F)nc1N1CCCC1)c1ccc(NS(C)(=O)=O)c(Cl)c1` (centres unmarked) [Example 65, 2-(3-chloro-4-(methylsulfonamido)phenyl)-N-((2-(pyrrolidin-1-yl)-6-(trifluoromethyl)pyridin-3-yl)methyl)propanamide], the Ki on vanilloid receptor (VR1) was 4.2 nM; in experiment [1] (setting [2]) it was 36.5 nM.
As to `CC(C(=O)NCc1ccc(C(F)(F)F)cc1N1CCCCC1)c1ccc(NS(C)(=O)=O)c(Cl)c1` (centres unmarked) [Example 66, 2-(3-chloro-4-(methylsulfonamido)phenyl)-N-(2-(piperidin-1-yl)-4-(trifluoromethyl)benzyl)propanamide], the Ki came out at 2.9 nM on vanilloid receptor (VR1) and 3.7 nM in experiment [1] (setting [2]).
In the same order, the values of `CC(C(=O)NCc1ccc(C(F)(F)F)nc1N1CCCCC1)c1ccc(NS(C)(=O)=O)c(Br)c1` (centres unmarked) [Example 67, 2-(3-bromo-4-(methylsulfonamido)phenyl)-N-((2-(piperidin-1-yl)-6-(trifluoromethyl)pyridin-3-yl)methyl)propanamide] are 3.2 nM and 5.1 nM.
In the case of `CC(C(=O)NCc1ccc(C(F)(F)F)cc1N1CCCC1)c1ccc(NS(C)(=O)=O)c(Br)c1` (centres unmarked) [Example 69, 2-(3-bromo-4-(methylsulfonamido)phenyl)-N-(2-(pyrrolidin-1-yl)-4-(trifluoromethyl)benzyl)propanamide], the Ki on vanilloid receptor (VR1) was found to be 1.7 nM; in experiment [1] (setting [2]), 2.4 nM.
Turning to `CC1CCN(c2nc(-c3ccc(F)cc3)ccc2CNC(=O)C(C)c2ccc(NS(C)(=O)=O)c(F)c2)CC1` (centres unmarked) [Example 184, 2-(3-fluoro-4-methylsulfonamido-phenyl)-N-[6′-(4-fluoro-phenyl)-4-methyl-3,4,5,6-tetrahydro-2H-[1,2′]bipyridinyl-3′-ylmethyl]-propionamide], the Ki in experiment [1] (setting [3]) was 77 nM.
For the compound `CC1CC(C)CN(c2nc(C(F)(F)Cl)ccc2CNC(=O)C(C)c2ccc(NS(C)(=O)=O)c(F)c2)C1` (centres unmarked) [Example 187, N-[6′-(chloro-difluoro-methyl)-3,5-dimethyl-3,4,5,6-tetrahydro-2H-[1,2′]bipyridinyl-3′-ylmethyl]-2-(3-fluoro-4-methylsulfonamido-phenyl)-propionamide], it took 39.6 nM to reach half-maximal inhibition against VR1/TRPV1 receptor (table 4) (IC50). Moreover, the inhibitory constant (Ki) in experiment [1] (setting [3]) worked out at 0.5 nM.
